Counter-ions that a name gives are not always drawn. Each block holds one molecule with its values, some of them ahead of it.
What was measured:
[1] = system: rat embryonic cortical neurons; assay: Aβ production in rat primary embryonic cortical neuronal cultures; format: cell-based; conditions: for production of Aβ peptides: normal rat primary neuronal cell cultures; for concentration at which significant reductions in Aβ were observed: primary cortical neuronal cultures, dose response, FIGS. 13 and 14
Source text: Cultures of rat embryonic cortical neurons were established from day 18 pregnant SD rats using standard techniques (Gasparini et al., 2001, J. Neurosci. 21(8):2561-2570).
The next day, cells were labeled with ^35S-methionine and cysteine for four hours in the presence of compounds as above. Media and cells were then harvested and subjected to immunoprecipitation with antibody 4G8, to detect Aβ and APP. The media was serially immunoprecipitated first with antibody 4G8 and then antibody 22C11, for detection of secreted Aβ, sAPPP and sAPPα. Immunoprecipitates were subjected to PAGE and resolved by autoradiography; APP metabolites were compared by densitometry.

[2] = system: wild-type 3T3 mouse fibroblasts; assay: Aβ production in wild-type 3T3 mouse fibroblasts; format: cell-based; conditions: 5 μM or 10 μM STI-571; 0.5 μM or 1.0 μM Compound 1; similar degree as in Abl−/− and N2a cells
Description: (§1) Abl knockout (Abl−/−) 3T3 mouse fibroblasts and wild-type 3T3 mouse fibroblasts (see Liu et al., 1996, Nature 384(6606):273-6) were grown separately and to confluence in 100 mm Corning tissue culture plates. These fibroblast cell lines are permanent cell lines. […] Several other plates were exposed to either 0.5 μM or 1.0 μM Compound 1 (dissolved in DMSO) or to DMSO without Compound 1.
(§2) For the above-described cell cultures, each of the drugs or control solvents was added to a standard culture medium (DMEM+10% FBS+pen/strep) at a dilution of 1:1000 and cultures were then incubated at 37° C. for 2 hours. The contacting of cell cultures and incubation with inhibitors and solvent, as described above, constituted “pretreatment” of cells.
(§3) The first culture medium was then removed and the cell cultures were rinsed with a second culture medium lacking methionine, cysteine and glutamate. The cell cultures were incubated with this culture medium for 30 minutes (to stimulate subsequent uptake of amino acids). Then the second culture medium was exchanged for fresh first culture medium containing ^35S-labeled methionine and cysteine (NEN Express label 50 μl/ml) and unlabeled glutamine (final concentration 2 mM) and with inhibitors as described above, and incubated for 4 hours at 37° C. […]

[3] = system: rat embryonic cortical neurons; assay: Aβ production in rat primary embryonic cortical neuronal cultures; format: cell-based
mΔe-Notch = assay: Notch cleavage in N2a cells transfected with mΔe-Notch; format: cell-based, mouse; conditions: at levels that strongly inhibit Aβ-formation; FIGS. 17 and 18
Source text: N2a cells were transfected with a constitutively active truncated form of Notch, mouse “deleted-extracellular” Notch (mΔe-Notch), which supplies a direct substrate for γ-secretase (De Strooper et al., 1999, Nature 398: 518-522).

[4] = system: N2a cells expressing Swedish variant of human APP and the PS1 mutation; assay: Mass spectrometry (Ciphergen ProteinChip, SELDI-TOF) of Aβ40 and Aβ42 in media from N2a cells; format: cell-based, mouse; conditions: FIG. 5
Description: Mass spectrometry was carried out on media from N2a cells to detect Aβ40 and Aβ42 peptides using the CiphergenProteinChip System (Ciphergen Biosystems Inc., Fremont, Calif.), which is based on Seldi and time-of-flight mass spectrometry, using standard protocols as set out by the manufacturer. The experimental procedures were the same as those disclosed above for immunoprecipitation/Western blotting, without metabolic labeling. […] Aliquots of detergent treated media were contacted to a metal chip that was previously contacted with an antibody, such as 6E10. The antibody binds human APP metabolites, including Aβ, in the applied sample. Detection of bound antigen followed a laser pulse that dissociated antigen from antibody.
Aβ peptides were resolved graphically as peaks of various heights, situated on an x-axis denoting molecular mass. Thus, Aβ40 and Aβ42 were resolved separately at approximately 4333 and 4519 daltons, respectively. The relative heights or areas under the peaks in a given spectrum denoted the relative concentrations of the detected species. Peaks corresponding to the same species, as conveyed by molecular mass, were compared among different spectra, reflecting different samples, to measure relative quantities of Aβ among a set of samples.

[5] = system: N2a cells transfected with the human Swedish APP mutation; assay: Aβ generation in N2a cells transfected with human Swedish APP and normal or ΔE9 presenilin 1 (immunoprecipitation, autoradiography, Western blot); format: cell-based, mouse; conditions: for Aβ after one hour of treatment: 35S labeled N2a cells expressing human APP-Swedish
Description: N2a cells transfected with the human Swedish APP mutation, and with either normal human presenilin 1 or ΔE9 mutant presenilin 1 (PS1), were used for assays of compound effect on Aβ generation.
Media was added with compound concentration of 0, 10^−9, 10^−8, 10^−7 and 10^−6 M; cells were incubated overnight at 37° C. The next day, cells were incubated with ^35S-methionine and ^35S-cysteine for four hours in the presence of the compound as above.
Media and cells were separately harvested and subjected to immunoprecipitation with antibody 4G8 (Senetek, Napa, Calif.), which recognizes an epitope corresponding to residues 17-28 of Aβ. Antibody 4G8 immunoprecipitates Aβ from media, and Aβ plus full-length APP from cells. After removal of antibody 4G8 and bound Aβ from media, the supernatant was reacted with 22C11 (Chemicon International), an antibody that immunoprecipitates sAPPβ and sAPPα. Immunoprecipitates were subjected to PAGE and resolved by autoradiography according to standard methods. APP metabolites were compared by densitometry according to standard methods.
In other experiments, immunoprecipitation followed by Western blot analysis was carried out on unlabeled (no radioactive label) N2a cells, using standard methods and using 6E10 (Senetek, Napa, Calif.) or 22C11 antibodies for detection.
These immunoprecipitation experiments were repeated using a minimal treatment time, 1 hour instead of overnight.

brain Aβ40, Aβ42 and C99 = assay: Brain Aβ and C99 in wild-type guinea pigs after intrathecal osmotic minipump treatment; format: in vivo, guinea pig; conditions: 2.8 mg/kg, 7 days
Description: After 7 days of treatment, animals were sacrificed, and their brains homogenized in 25 mM Tris 7.5, 50 mM NaCl, 1 mM DTT, 5 mM EDTA, 1 mM EGTA, and 1× protease inhibitor cocktail (Complete™, Boehringer Biochemicals). Aliquots of brain homogenate were assayed for Aβ peptide by using a sandwich ELISA according the manufacturer's recommendations (Biosource International, Camarillo, Calif.) and for C99 by immunoprecipitation and Western blot analysis using standard methods.

γ-secretase = assay: Isolated γ-secretase activity: Aβ release (ELISA) from membranes of N2a cells expressing recombinant C99; format: biochemical, mouse; conditions: membranes from N2a cells expressing C99, with ATP; FIG. 4
Description: For the assay of isolated γ-secretase activity, membranes were isolated from N2a cells expressing a recombinant γ-secretase substrate, C99, according to the methods of Zhang et al. (2001, Biochemistry 40: 5049-5055). […] Also, to determine whether ATP was primarily responsible for stimulating γ-secretase activity, the previous energy regenerating system was substituted with one designed to sustain concentrations of ATP alone but not GTP. Aβ release from isolated membranes was determined by ELISA (Biosource International, Camarillo, Calif.).

[6] = system: Abl knockout (Abl−/−) 3T3 mouse fibroblasts; assay: Aβ production in Abl knockout (Abl−/−) 3T3 mouse fibroblasts; format: cell-based; conditions: 5 μM or 10 μM STI-571; 0.5 μM or 1.0 μM Compound 1; similar degree as in wild-type and N2a cells
Description: as §1, §2, §3

appearance of animals (brain Aβ40, Aβ42 and C99): healthy and active
Compound: CSc1cccc(Nc2ncc3cc(-c4c(Cl)cccc4Cl)c(=O)n(C)c3n2)c1 [Compound 1]
production of Aβ peptides [1]: inhibit
concentration at which significant reductions in Aβ were observed [1]: 0.5 µM
secretion of soluble APP-α ([1]; primary neuronal cells cultured from rat brain, FIG. 9): consistent secretion
levels of Aβ in cells ([1]; rat cortical neurons): reduced
levels of Aβ in media ([1]; rat cortical neurons, FIG. 8A, FIG. 10): reduced
total cellular APP ([1]; rat cortical neurons, FIG. 9): not reduced significantly
total sAPP ([1]; rat cortical neurons, FIG. 9): not reduced significantly
Aβ production [2]: inhibited
cytotoxicity [3]: not cytotoxic
cleavage of mΔe-Notch to form Notch intracellular domain (NICD) (mΔe-Notch): unaffected
Aβ40 level [4]: dramatically reduced
Aβ42 level [4]: dramatically reduced
Aβ after one hour of treatment ([5]; FIGS. 6 and 7): dose-dependent decrease
IC50 ([5]; N2a cells expressing APP and either normal human presenilin 1 or ΔE9 mutant presenilin 1, read-out: IC50 (inhibited total levels of Aβ by 50%)): < 1000 nM
full-length βAPP levels (brain Aβ40, Aβ42 and C99; FIG. 16C): do not change
Aβ generation in isolated membranes (γ-secretase): dose-dependent decrease
Aβ production [6]: inhibited

Compound: Cc1ccc(NC(=O)c2ccc(CN3CCN(C)CC3)cc2)cc1Nc1nccc(-c2cccnc2)n1 [STI-571, imatinib mesylate, reference compound]
production of Aβ peptides [1]: inhibit
concentration at which significant reductions in Aβ were observed [1]: 5 µM
Aβ production [2]: inhibited
Aβ after one hour of treatment ([5]; FIGS. 6 and 7): dose-dependent decrease
APP levels ([5]; intact N2a cells expressing Swedish variant of human APP, FIGS. 6 and 7): do not change
Aβ production [6]: inhibited
